In patent US9918488B2, “Method for sterilizing drinks contaminated with acetic acid bacteria” (LANXESS Deutschland GmbH, priority 2014, dated 2018):
Values after ≈ are worked out from the molar mass of the structure shown.

How the values were obtained:
[1] = test system: mixture of Asaia bogorensis, Asaia lannaensis, Gluconobacter oxydans and Gluconacetobacter liquefaciens; settings: individual active ingredient; substrate iced tea; 200 cfu/mL per bacterium in the mixture
Text: (§1) A drink was contaminated with a particular amount of a mixture of microorganisms and a mixture of preservatives was investigated for efficacy compared to the individual substances. The mixture of bacteria is composed of Asaia bogorensis, Asaia lannaensis, Gluconobacter oxydans and Gluconacetobacter liquefaciens.
(§2) The following relationships apply: QA/Qa+QB/Qb+QC/Qc=SI • Qa=concentration of substance A which is the MIC • Qb=concentration of substance B which is the MIC • Qc=concentration of substance C which is the MIC • QA=concentration of substance A in the concentration of A/B/C at which microbial growth is suppressed • QB=concentration of substance B in the concentration of A/B/C at which microbial growth is suppressed • QC=concentration of substance C the concentration of A/B/C at which microbial growth is suppressed • SI=Synergy Index • SI=1 means additivity • SI>1 means antagonism • SI<1 means synergism

[2] = test system: mixture of Asaia bogorensis, Asaia lannaensis, Gluconobacter oxydans and Gluconacetobacter liquefaciens; test: microbe, parasite or virus in culture; settings: 168 h, read-out: MIC ppm after one week
Text: as §1, §2

For `O=S([O-])OS(=O)[O-].[K+].[K+]` [Potassium disulphite, potassium disulphite], the “MIC ppm after one week” value [1] was 60 mg/L and the MIC [2] was 60 µg/mL.

`C/C=C/C=C/C(=O)[O-].[K+]` [Potassium sorbate, potassium sorbate] was tested, and the MIC [2] was 750 µg/mL.

In the case of `COC(=O)OC(=O)OC` [Dimethyl dicarbonate, dimethyl dicarbonate], the “MIC ppm after one week” value [1] is reported as 300 mg/L (≈ 2240 µM) and the MIC [2] is reported as 300 µg/mL (≈ 2240 µM).

`O=C([O-])c1ccccc1.[Na+]` [Sodium benzoate, sodium benzoate] was tested, and the “MIC ppm after one week” value [1] was 550 mg/L.
